What was measured:
[1] = test system: patients receiving SSRI or SNRI treatment for major depressive disorder; test: Retrospective review of patients receiving SSRI or SNRI treatment for major depressive disorder: late-appearing anhedonic symptoms; assay type: in vivo; details: individual patient
Excerpt: Although in the majority of so afflicted patients the diagnosis will be apparent during this interval, it should be understood that iatrogenic anhedonia may appear earlier or later during any course of treatment with medications that increase serotonin transmission efficiency with or without similar increases in the efficiency and availability of norepinephrine. The rather substantial number of patients suffering from the condition over diverse population samples may be postulated to be due to a genetic predisposition for the condition.
Patients in whom SSRIs produced excellent remission of major depressive disorder for the period shown in the 5th column
The result of decreased dopaminergic efficiency and/or availability may be dysphoric interference with the ability to experience the normal range of positive affect over the range from mild interest to pleasant excitement, and from ordinary contentment to great joy. Such decreased dopaminergic transmission efficiency may be caused by agents that block the serotonin transporter alone, and/or those that block both the serotonin transporter and the norepinephrine transporter, and/or those that increase the synthesis and release of both norepinephrine and serotonin and any mechanism whereby the efficiency of serotonergic transmission is enhanced.

[2] = test system: patients afflicted with anhedonia; test: Treatment of iatrogenic anhedonia in patients with agents enhancing dopaminergic availability and/or efficiency; assay type: in vivo; details: about 2.5 mg prn, no more than once daily, on as few as two to five days per week
[3] = period for which the SSRI produced excellent remission of major depressive disorder

Row | Compound | SSRI duration before new symptoms [1, 3] | improvement of anhedonia [2] | SSRI duration before new symptoms ([1]; period of excellent remission, some patients 10 years intermittent (stopped Rx each time anomie experienced)) [year]
1 | Fc1ccc([C@@H]2CCNC[C@H]2COc2ccc3c(c2)OCO3)cc1 [paroxetine] | 10 years | – | –
2 | COC(=O)[C@H](c1ccccc1)[C@H]1CCCCN1 [dexmethylphenidate] | – | Satisfactory and ongoing improvement | –
3 | CNCCC(Oc1ccc(C(F)(F)F)cc1)c1ccccc1 (stereo not drawn) [fluoxetine] | 2 years | – | 1
4 | CN(C)CCCC1(c2ccc(F)cc2)OCc2cc(C#N)ccc21 (stereo not drawn) [citalopram] | 6 months | – | –
5 | CN[C@H]1CC[C@@H](c2ccc(Cl)c(Cl)c2)c2ccccc21 [sertraline] | 2 years | – | –

Reference: patent US20060217394A1, “Treatment of anhedonia” (priority 2005, published 2006)
